Measurements published in US20260191821A1, “COMPOSITIONS AND METHODS FOR TREATING NEURODEGENERATIVE DISEASES” (The General Hospital Corporation, priority 2023, published 2026).
Like-named read-outs stand apart in the source and are kept apart here.

How the values were obtained:
TNFα = TNFα release by LPS-activated BV2 microglial cells, ELISA on conditioned cell media; assay type: cell-based; conditions: for TNFα release / LPS-induced microglial pro-inflammatory activation: Example 1, BV2 cells, FIGS. 2, 4B, 5; for TNFα release / LPS-induced microglial pro-inflammatory activation / EC50: 1 μg/mL LPS for 5 hours; for EC50: Mus musculus, BV-2, BV2 cells, read-out: EC50 of TNFα reduction
Description: Effects of urolithin A and fisetin on the reduction of pro-inflammatory cytokines levels, such as TNFα, were assessed in an unbiased library screening. BV2 microglial cells were converted to a pro-inflammatory activation state by acute treatment with 1 μg/mL of Lipopolysaccharide (LPS) for 5 hours in the presence of a vehicle or urolithin A or fisetin. Effects on inflammation were assessed by measuring levels of a representative pro-inflammatory cytokine, TNFα, via an ELISA assay on the conditioned cell media. FIGS. 2A and 2B show representative results of the dose-response reduction of TNFα after treatment with LPS and urolithin A and fisetin, respectively.
BV2 microglial cells were next treated with 1 μg/mL of LPS for 5 hours in the presence of urolithin A and fisetin at different concentrations, alone or in combination (FIG. 5). Levels of TNFα secreted by the microglial cells into the conditioned cell media were measured using ELISA.
Effects of urolithin A, fisetin, nicotinamide riboside, cat's claw, and quercetin, alone or in combination, on TNFα concentration were assessed (FIGS. 6A-6E and 7A-7C). BV2 microglial cells were converted to a pro-inflammatory activation state by acute treatment with 1 μg/mL of Lipopolysaccharide (LPS) for 5 hours in the presence of a vehicle or nicotinamide riboside (#101), cat's claw (#134), urolithin A (#144), fisetin (NP-82) or quercetin (NP-162), alone or in combination. Effects on inflammation were assessed by measuring levels of TNF&, via an ELISA assay on the conditioned cell media.

BV2 microglial cells = experiment: Microglial Aβ42 uptake/clearance in BV2 microglial cells, measured by Aβ ELISA; assay type: cell-based
Description: Urolithin A was identified as a top-tier enhancer of Aβ clearance by microglia in an unbiased (and biased) screening of natural product compounds. Cellular assay models based on BV2 microglial cells were used to assess the ability of microglia to phagocytose synthetic Aβ42 peptides, a major pathogenic Aβ isoform of Alzheimer's disease Aβ species (microglial uptake/clearance).
The ability of the agents, alone or in combination, to increase microglial Aβ uptake was also assessed (FIG. 9). […] FIGS. 11B-11D and FIGS. 12A-12F show TNFα levels in response to treatment with cat's claw (#134), urolithin A (#144), fisetin (NP-82) and quercetin (NP-162), alone or in various combinations.

[1] = 500 mg to 1000 mg daily; cited from earlier work

EC50 (TNFα; FIG. 2B) | EC50 (BV2 microglial cells; Mus musculus, BV-2, BV2 microglial cells, synthetic Aβ42 peptides, FIG. 1) | EC50 (TNFα; FIG. 2A) | Structure (SMILES) | TNFα release / LPS-induced microglial pro-inflammatory activation (TNFα) | reduction of TNFα levels (TNFα; fisetin alone, LPS-treated BV2 microglia cells, FIG. 4B) | microglial Aβ uptake/clearance (BV2 microglial cells; Example 1, BV2 microglial cells, FIG. 1 and FIG. 3) | reported safety and/or usefulness [1]
8 µM | – | – | O=c1c(O)c(-c2ccc(O)c(O)c2)oc2cc(O)ccc12 [fisetin, 3,3′,4′,7-tetrahydroxyflavone] | reduce TNFα release by LPS-activated microglia in a dose-dependent manner | roughly 75% | – | –
– | 12.4 µM | 21 µM | O=c1oc2cc(O)ccc2c2ccc(O)cc12 [urolithin A, 3,8-dihydroxy-6H-benzo[b,d]pyran-6-one] | reduce TNFα release by LPS-activated microglia in a dose-dependent manner | – | increases microglial Aβ uptake/clearance in a dose-dependent manner | safe and/or useful
